From patent US6870154B1, “Capillary mixer with adjustable reaction chamber volume for mass spectrometry” (The University of Western Ontario, priority 2004, dated 2005)
Each block holds one compound with its values, some of them ahead of it.

Assays:
[1] = demetalation of chlorophyll a in acidic methanol, kinetic mode ESI-MS; type: physicochemical; settings: HCl, quadratic fit
Protocol: (§1) For demetalation experiments, syringe 1 contained 40 μM chlorophyll in methanol and syringe 2 contained HCl in methanol at concentrations ranging from 30 to 100 mM. Both syringes were advanced at 30 μL/min for a total flow rate 60 μL/min in the reaction capillary. Ubiquitin refolding studies were carried out by having syringe 1 filled with 20 μM protein in 46% water, 50% methanol, and 4% acetic acid. Syringe 2 contained water. The two syringes were advanced at 20 and 50 μL/min, respectively, for a total flow rate of 70 μL/min. Final solution conditions after mixing ere 14.3% methanol and 1.1% acetic acid.
On-Line Kinetic ESI-MS Measurements. These measurements were carried out using a custom-built continuous-flow mixing apparatus that is based on two concentric capillaries (FIG. 1).
Instrument Performance in Kinetic Mode. […]
The apparatus depicted in FIG. 1 was used for monitoring the kinetics of chlorophyll demetalation in methanol solution for acid concentrations ranging from 15 to 50 mM. […] Nevertheless, it is clear that the temporal resolution of our novel mixing device exceeds that of other on-line ESI-MS techniques, which so far allowed rate constants up to ˜25 s^−1 to be measured.^16

[2] = demetalation of chlorophyll a in acidic methanol, optical stopped-flow spectroscopy; type: physicochemical; settings: 664 nm, quadratic fit
Protocol: (§2) Optical Stopped-Flow Measurements. These measurements were performed on an SFM-4 instrument (Bio-Logic, Claix, France), using an observation wavelength of 664 nm for monitoring the demetalation of chlorophyll. The two stepper motor-driven syringes used were advanced at 3.5 mL/s each, for an instrument dead time of 3.3 ms. All experiments were carried out at room temperature (22±1° C.).
Instrument Performance in Kinetic Mode. The demetalation of chlorophyll a in acidic solution is a well-characterized process, during which the central magnesium of the porphyrin is displaced by two protons.^40-42 This reaction represents a convenient test system, because it allows kinetic measurements by ESI-MS and by standard optical stopped-flow absorption spectroscopy. When studied under pseudo-first-order conditions, the rate constant of the reaction is given by kobs=k[H^+]^2. The intrinsic rate constant k in this expression is known to be strongly solvent-dependent.^41, 42

α-chymotrypsin = target: T1, α-chymotrypsin (Bos taurus, UniProt P00766); assay: pre-steady-state hydrolysis of p-NPA by chymotrypsin, on-line kinetic ESI-MS; type: biochemical; settings: fit of kobs to Equation 12, pH 7.8, 20% methanol, 22 °C
T1 construct: Peaks labeled with α and δ′ correspond to α- and δ′-chymotrypsin, respectively; purchased Sigma (St. Louis, Mo.)
Source text: (§3) Chymotrypsin is a member of the serine protease family. ^86-88 Ser195 represents the reactive nucleophile in the active site of this enzyme. Although the physiological role of chymotrypsin is to serve as an endopeptidase, it also catalyzes the hydrolysis of esters, including numerous synthetic substrate analogs. […] Subsequently, Ser195 forms a covalent bond with the carbonyl carbon of the substrate, thus releasing the first hydrolysis product P1. The rate constant of this acylation step is denoted as k2. The subsequent de-acylation has a rate constant of k3, and it leads to regeneration of the free enzyme by hydrolysis of the Ser195-ester bond, through release of the second hydrolysis product P2. For conditions where S is present in large excess, it can be shown that the concentration of P1 as a function of time t in the pre-steady-state regime is given by Equation 9^58, 59: [P1](t)=C1(1−exp(−kobst))+C2t (9) and the concentration-time profile of the covalent EP2 complex can be expressed as Equation 10: [EP2](t)=C3(1−exp(−kobst)) (10). Consequently, the sum of the concentrations of free enzyme and ES complex are given by Equation 11: ([Efree]+[ES](t)=C4exp(−kobst)+C5 (11). C1, . . . , C5 in these expressions are constants, and kobs is given by Equation 12: [formula] where [S] is the substrate concentration. Measurements of kobs as a function of substrate concentration allow the determination of the parameters k2, k3, and Kd in Scheme 8.
(§4) On-line kinetic ESI-MS experiments. ESI-MS-based kinetic experiments were carried out on a custom built continuous flow mixing apparatus described in FIG. 2. Briefly, this setup consists of two concentric capillaries, that are connected to sample injection syringes. Reactions are initiated by mixing of two solutions at the outlet of the inner capillary. The reaction time is determined by the solution flow rate, and by the distance between the mixing region and the end of the outer capillary. For experiments in kinetic mode, the inner capillary is steadily withdrawn from the end of the outer capillary, while the mass spectrometer is set to monitor selected m/z values, corresponding to specific solution-phase species, as a function of time. In spectral mode, the inner capillary is set at specific distances from the end of the outer capillary, such that entire mass spectra can be obtained for selected reaction times.
(§5) For the experiments described here, both reactant solutions were introduced into the apparatus at 20 μL/min using syringe pumps (Harvard Apparatus, Saint Laurent, QC) for a total flow rate of 40 μL/min after the mixer. […]

δ′-chymotrypsin = target: T2, δ′-chymotrypsin (Bos taurus, UniProt P00766); assay: as above; type: biochemical; settings: fit of kobs to Equation 12, pH 7.8, 20% methanol, 22 °C
T2 construct: Peaks labeled with α and δ′ correspond to α- and δ′-chymotrypsin, respectively; purchased Sigma (St. Louis, Mo.)
Source text: as §3, §4, §5

[3] = target: T3, chymotrypsin (a mixture of the α form and δ′ forms) (Bos taurus, UniProt P00766); assay: p-NPA hydrolysis by optical stopped-flow spectroscopy (release of p-NP); type: biochemical; settings: weighted average of α and δ′-chymotrypsin
T3 construct: Chymotrypsin (a mixture of the α form and δ′ forms); purchased Sigma (St. Louis, Mo.)
Protocol: as §2
Enzymatic reactions. The limited solubility of p-NPA in purely aqueous solutions necessitated the use of 20% (v/v) methanol in the reaction mixture. […] These solutions were mixed in a 1:1 ratio with 32 μM chymotrypsin in water for a final pH of 7.8, which corresponds to the pH optimum of the enzyme. […] Experiments on bradykinin were carried out in an analogous manner, but in purely aqueous solution, and by using 20% (v/v) acetic acid in water as makeup solvent. […] Substrate concentrations given below represent the values in the reaction mixture, i.e., after the first mixing step. […]
Measurements of kobs as a function of substrate concentration were also carried out by stopped-flow spectroscopy, using the release of the yellow p-NP moiety as optical probe. In contrast to the ESI-MS experiments, these optical studies cannot discern the two forms of the enzyme, and therefore the measured data represent a weighted average of the substrate conversion caused by a and δ′-chymotrypsin. […]

chymotrypsin = target: T4, chymotrypsin (Bos taurus, UniProt P00766); settings: previously reported, cited from earlier work
T4 construct: Chymotrypsin (a mixture of the α form and δ′ forms); purchased Sigma (St. Louis, Mo.)

[4] = refolding of ubiquitin from the A state, kinetic mode ESI-MS
Protocol: as §1
The A state was populated by exposing the protein to 50% methanol and 4% acetic acid; refolding was initiated by mixing with an excess volume of water. ESI mass spectra of ubiquitin for different times after initiation of refolding are depicted in FIG. 7. […] This spectrum is practically indistinguishable from that of the protein prior to initiation of refolding (data not shown) and very similar to ubiquitin A state spectra that have been published previously.^14, 51 As refolding proceeds, the relative abundance of highly charged protein ions decreases and that of the […] and 7+ ions increases (FIGS. 7B,C). The final spectrum was recorded off-line 5 min after initiation of refolding in a manual mixing experiment.
The diffusion coefficient of ubiquitin can be estimated to be around D=1×10^−10 m^2/s.^52 According to condition 7, this implies that diffusion effects on the observed kinetics are negligible in an experimental time window up to τ≈2 s. The data can therefore be fitted based on eq 5 (solid lines in FIG. 8). C(τ) expressions for the 13+ and 12+ions were generated by assuming the model function C(t)=a1 exp(−kobst)+a0, whereas the analysis of the 8+ and 7+ ions was based on C(t)=b1(1−exp(−kobst))+b0. […] Instead, the kinetic profiles level off at ˜20% of their initial values. This effect can be attributed to a subpopulation of slow-folding ubiquitin molecules that contain non-native cis-proline isomers.^53 Proline isomerization, taking place on the order of tens of seconds, 54 is the rate-limiting step for the refolding of this subpopulation. […] Processes occurring on such a slow time scale are beyond the range accessible by our rapid mixing setup.

[5] = read-out: dissociation constant Kd
[6] = much higher buffer concentrations

Compound: C=Cc1c(C)c2cc3nc(c4c5[n-]c(cc6nc(cc1[n-]2)C(C)=C6CC)c(C)c5C(=O)[C@@H]4C(=O)OC)[C@@H](CCC(=O)OC/C=C(\C)CCC[C@H](C)CCC[C@H](C)CCCC(C)C)[C@@H]3C.[Mg+2] [chlorophyll a, Chlorophyll a]
intrinsic rate constant k of demetalation (kobs=k[H+]^2) [1]: 0.048±0.002 mM^−2s^−1
intrinsic rate constant k of demetalation [2]: 0.050±0.001 mM^−2 s^−1

k2 (acylation rate constant) (α-chymotrypsin): 3.2 ± 0.3 s⁻¹
Kd (α-chymotrypsin; [5]): 1400 ± 200 µM
k2 (acylation rate constant) (δ′-chymotrypsin): 3.7 ± 0.3 s⁻¹
Kd (δ′-chymotrypsin; [5]): 1700 ± 200 µM
Kd [3]: 1600 ± 100 µM
k2 [3]: 3.6 ± 0.2 s⁻¹
Compound: CC(=O)Oc1ccc([N+](=O)[O-])cc1 [p-NPA, para-nitrophenyl acetate]
Kd (chymotrypsin; [6]): 7000 µM
k2 (chymotrypsin; [6]): 3 s⁻¹
k3 (chymotrypsin): 0.03 s⁻¹

Compound: ubiquitin
refolding kobs ([4]; 8+ ion, 14.3% methanol, 1.1% acetic acid): 5.3 s⁻¹
refolding kobs ([4]; 9+ ion): 5.3 s⁻¹
refolding kobs ([4]; 12+ ion): 5.2 s⁻¹
refolding kobs ([4]; 13+ ion): 5.1 s⁻¹
refolding kobs, average value ([4]; average of the four fits): 5.2 s⁻¹
